Drawing on patent US5569655A, “Substituted heterocyclylisoquinolinium salts and compositions and method of use thereof” (Sterling Winthrop Inc., priority 1994, dated 1996), this text covers Ki and IC50 for 7 compounds.

The target in experiment [1] is PCP recognition sites (PCP receptor). The experiment in a line: [3H]TCP radioreceptor assay (binding to PCP recognition sites). The note with it: rat whole brain membranes, approx. 1 nM [3H]TCP; mean of at least two determinations. Further details: species or system rat (male Sprague-Dawley. The procedure: [^3 H]TCP Radioreceptor Assay
[^3 H]TCP binding to PCP recognition sites was performed as described by Vignon et al. Brain Research 1983, 280, 194-197. Male Sprague-Dawley rats were sacrificed by decapitation, and whole brains were homogenized in 10 volumes (wt/vol) of cold Tris-HCl buffer (50 mM, pH 7.7) using a Brinkmann Polytron (setting 6, 30 sec). The homogenate was centrifuged at 40,000×g for 10 min at 4° C. The supernatant was decanted, and the homogenization and centrifugation steps were repeated twice as described above. Following this, the pellet was resuspended in Tris-HCl (5 mM, pH 7.7) at a tissue concentration of 0.5-0.75 g/ml, and one ml aliquots were frozen at -70° C. until use. The binding characteristics for PCP recognition sites were not altered by the freezing of membrane suspensions.
On the day of the assay, membrane aliquots were thawed, resuspended in fresh 5 mM Tris-HCl buffer at a tissue concentration of 1 mg/ml, and stored on ice until use. Each assay tube contained 100 μl of [^3 H]TCP at a final concentration of approximately 1 nM, 100 μl of various concentrations of the compounds of interest, 500 μl of the tissue suspension and 300 μl of buffer to a final assay volume of 1 ml and a final protein concentration of 0.5 mg/tube. Non-specific binding was defined by addition of a final concentration of 100 μM PCP to blank tubes. All tubes were incubated at room temperature for 25 min before termination of the reaction by rapid filtration over Whatman GF/B glass fiber filters that had been presoaked in a solution of 0.5% polyethylenimine for at least 1 hr prior to use. Filters were washed with three 4 ml volumes of cold Tris buffer. Following addition of scintillation cocktail, the amount of bound radioactivity was determined by liquid scintillation spectrometry using a Beckman LS 5000TA liquid scintillation counter with an efficiency for tritium of approximately 55%. Inhibition constants (Ki values) were calculated using the EBDA/LIGAND program (McPherson, J. Pharmacol. Meth. 1985, 14, 213-228), purchased from Elsevier/Biosoft, Inc. The results are reported as Ki values (in nM) which are expressed as the mean of at least two separate determinations, or as a percent (%) inhibition of binding at 10 μM.
(§1) Table 4 summarizes the results obtained from the testing of representative compounds of the invention in the [^3 H]TCP radioreceptor assay as well as in the antagonism of NMDA-induced neurotoxicity in cultured neurons.

The subject of experiment [2] is NMDA-induced neurotoxicity in cultured cortical neurons. The experiment in a line: Antagonism of NMDA-induced neurotoxicity in cultured neurons. Format: cell-based, mouse (Swiss-Webster). Conditions: Mus musculus, Cortical neurone, 500 μM NMDA for 30 minutes; LDH activity after 24 hours. The procedure: Antagonism of NMDA-induced Neurotoxicity in Cultured Neurons
Preparation of cultured cortical neurons
Pregnant, Swiss-Webster mice were obtained from Taconic Farms (Germantown, N.Y.) and sacrificed 16 days post conception. Fetuses were removed and placed in a sterile dish containing Hank's balanced salt solution (HBSS), pH 7.4. Brain cortices were dissected, meninges were removed, the tissue was minced and placed into a solution of HBSS containing 0.25% (w/v) trypsin at 37° C. for 15 minutes. Tissue was then triturated with a sterile pasteur pipet, diluted with minimal essential media (Gibco 330-1430), pH 7.4, supplemented with 10% horse serum, 10% fetal calf serum, 2 mM 1-glutamine, 21 mM d-glucose, 2.2 g/L sodium bicarbonate, 1000 U/ml penicillin, and 1,000 μg/ml streptomycin. Cells were plated onto Falcon primaria 96 well plates at a final density of 50,000 cells/well and incubated at 37° C. in the presence of 5% (v/v) carbon dioxide. After 5 days, plating media was replaced with maintenance media containing minimal essential media (Gibco 330-1430), pH 7.4, supplemented with 10% horse serum, 10% 1-glutamine, 21 mM D-glucose, 2.2 g/l sodium bicarbonate,1,000 U/ml penicillin, 1,000 μg/ml streptomycin, and 10 μM cytosine arabinoside. On days 7 and 10, media was replaced with maintenance media as above lacking the cytosine arabinoside. Experiments were conducted on day 13.
Neuroprotection Assessment
Day 13 cultured cortical neurons were washed twice with minimal essential media, pH 7.4 and then exposed for 30 minutes to 500 μM N-methyl-D-aspartic acid (NMDA) with or without varying concentrations of test agents. […] MK-801 and test agents were prepared in minimal essential media supplemented with 21 mM d-glucose and 2.2 g/L sodium bicarbonate (MEM). After 30 minutes, media was replaced with MEM alone. Exposure of neurons to test agents was limited to the NMDA treatment period. Twenty-four hours after removal of NMDA, an aliquot of media from each well was removed for assessment of cell injury by determining lactate dehydrogenase (LDH) activity by the method of Wroblewski and LaDue Proc. Soc. Exp. Biol. Med. 1955, 90, 210-213. The results are expressed as an IC50 (in nM) value (concentration causing 50% inhibition) for the antagonism of NMDA-induced neurotoxicity.
as §1

With `CCOC1(OCC)C2c3ccccc3C([n+]3ccn(C)c32)C1(C)C` (centres unmarked) [7(F), 11,11-diethoxy-12,12-dimethyl-5,10-ethano-5,10-dihydro-1-methylimidazo[1,2-b]isoquinolin-4-ium chloride], the Ki in experiment [1] is 8.2 nM. This compound also returned a half-maximal inhibitory concentration (IC50) in experiment [2] of 53 nM.

Regarding `Cn1cc[n+]2c1C1c3ccccc3C2CC1(c1ccoc1)c1ccoc1` (centres unmarked) [13(b), 11,11-di(3-furyl)-5,10-ethano-5,10-dihydro-1-methylimidazo[1,2-b]isoquinolin-4-ium chloride], in experiment [1], the inhibition constant Ki was 2.9 nM. Further, inhibition in experiment [2] was half-maximal at 257 nM (IC50).

Turning to `Cc1csc2[n+]1C1CC(c3ccoc3)(c3ccoc3)C2c2ccccc21` (centres unmarked) [15(F), 11,11-di(3-furyl)-5,10-ethano-5,10-dihydro-3-methylthiazolo[3,2-b]isoquinolinium chloride], the inhibition constant Ki in experiment [1] worked out at 20 nM. This compound also displayed an IC50 in experiment [2] of 300 nM.

In turn, `Cc1c[n+]2c(s1)C1c3ccccc3C2CC1(c1ccoc1)c1ccoc1` (centres unmarked) [16(E), 11,11-di(3-furyl)-5,10-ethano-5,10-dihydro-2-methylthiazolo[3,2-b]isoquinolinium chloride] came in with a Ki in experiment [1] of 11 nM. Half-maximal inhibition in experiment [2] (IC50) required 270 nM.

For the compound `c1ccc2c(c1)C1CC(c3ccn[nH]3)(c3ccn[nH]3)C2c2scc[n+]21` (centres unmarked) [18(h), 11,11-di-(pyrazol-5-yl)-5,10-ethano-5,10-dihydrothiazolo[3,2-b]isoquinolinium chloride], in experiment [1], the affinity corresponds to a Ki of 21 nM. The compound further returned a concentration for half-maximal inhibition (IC50) in experiment [2] of 480 nM.

For `Oc1cccc2c1C1c3scc[n+]3C2CC1(c1ccoc1)c1ccoc1` (centres unmarked) [206(f), 11,11-di(3-furyl)-9-hydroxy-5,10-ethano-5,10-dihydrothiazolo[3,2-b]isoquinolinium chloride], the Ki in experiment [1] was found to be 1.87 nM. The compound also showed an IC50 in experiment [2] of 20.9 nM.

In turn, `CCOC1(OCC)C2c3ccccc3C([n+]3ccsc32)C1(C)C` (centres unmarked) [Example 1i, 11,11-diethoxy-12,12-dimethyl-5,10-ethano-5,10-dihydrothiazolo[3,2-b]isoquinolinium chloride 3/5 hydrate] registered a Ki in experiment [1] of 6.1 nM. Also, the IC50 in experiment [2] amounted to 173 nM.

What is called Ki is a measure of affinity in units of concentration, obtained from inhibition or displacement. A higher Ki goes with lower affinity. For orientation: IC50 means the concentration that gives 50% inhibition. Lower therefore signals inhibition by little substance.
